According to ChEMBL document CHEMBL1138441, “3-Benzyl-1,3-oxazolidin-2-ones as mGluR2 positive allosteric modulators: Hit-to lead and lead optimization” (Bioorg Med Chem Lett, 2009):

Key:
[1] = Drug level in mouse brain at 10 mg/kg, sc after 2 hrs; format: ADME, organism-based; design: dose 10 mg/kg, route subcutaneous; conditions: read-out: Drug uptake
[2] = Plasma concentration in mouse at 10 mg/kg, sc after 2 hrs; format: ADME, organism-based; design: dose 10 mg/kg, route subcutaneous; conditions: read-out: Drug uptake
[3] = Oral bioavailability in rat at 10 mg/kg; format: ADME, organism-based; conditions: in vivo
[4] = Ratio of drug level in mouse brain to plasma at 10 mg/kg, sc after 2 hrs; format: ADME, organism-based; design: dose 10 mg/kg, route subcutaneous
[5] = Volume of distribution at steady state in rat at 1 mg/kg, iv; format: ADME, organism-based; design: dose 1 mg/kg, route intravenous; conditions: in vivo, read-out: Vdss
[6] = Drug level in mouse brain at > 32 mg/kg, sc after 30 mins; format: ADME, organism-based; design: dose 32 mg/kg, route subcutaneous; conditions: read-out: Drug uptake
[7] = Plasma concentration in mouse at > 32 mg/kg, sc after 30 mins; format: ADME, organism-based; design: dose 32 mg/kg, route subcutaneous; conditions: read-out: Drug uptake
[8] = Oral bioavailability in rat at 3 mg/kg; format: ADME, organism-based; conditions: in vivo
[9] = Ratio of drug level in mouse brain to plasma at > 32 mg/kg, sc after 30 mins; format: ADME, organism-based; design: dose 32 mg/kg, route subcutaneous
[10] = Permeability from apical to basolateral side of MDCK cells at 2 uM by MS based assay; format: ADME, cell-based, Canis lupus familiaris; conditions: dog

Row | SMILES | concentration at 2 h [1] [ng/g] | concentration at 2 h [2] [ng/mL] | bioavailability [3] [%] | Kp at 2 h [4] | Vd [5] [L/kg] | concentration at 0.5 h [6] [ng/g] | concentration at 0.5 h [7] [ng/mL] | bioavailability [8] [%] | Kp at 0.5 h [9] | Papp A→B at 2 µM [10] [×10⁻⁶ cm/s]
1 | C[C@@H]1CN(Cc2ccc(-c3ccc(F)c(Cl)c3)cc2)C(=O)O1 | 2750 | 750 | 64 | 3.7 | 3.2 |  |  |  |  | 
2 | C[C@@H]1CN(Cc2ccc(-c3ccc(F)cc3F)cc2)C(=O)O1 | 2230 | 1070 |  | 2.1 |  |  |  |  |  | 
3 | C[C@@H]1CN(Cc2ccc(-c3ccc(OC(F)(F)F)cc3F)nc2)C(=O)O1 |  |  |  |  | 4.7 | 10100 | 3550 | 100 |  | 
4 | CC(Oc1ccc(CN2C[C@@H](C)OC2=O)cc1)C1CCCCC1 (single isomer, unassigned) |  |  |  |  |  |  |  |  | 3 | 12.3
